From US10508118B2, “Pyrimidopyrrole compounds, method for preparing the same, pharmaceutical compositions comprising the same and uses thereof” (Xiamen University, priority 2015, dated 2019)
Read-outs that look alike come from different tables or passages of the source.

Tests used:
Assay type in all cases: cell-based
[1] = target: T1, EML4-ALK-BaF3 (Homo sapiens, UniProt Q9UM73); experiment: Growth inhibition of EML4-ALK transformed BaF3 cells (MTS); conditions: EML4-ALK-BaF3 cells, 48 hours, MTS
T1 construct: expressed in transfected cells; host or cells: Ba/F3 cells; the other entry of the earlier key: EML4 (Q9HC35, Echinoderm microtubule-associated protein-like 4)
Procedure: (§1) If compounds can inhibit the activity of ALK kinase or the activity of ALK signaling pathway, they can inhibit the growth of ALK transformed Ba/F3 cells. […] The broad-spectrum toxicity of compounds can be evaluated by determining the effect of the compounds on the growth of wild type BaF3 cells.
(§2) 1) Medium: DMEM (Dulbecco's modified eagle medium) or RPMI1640 (containing 10% fetal bovine serum, 100 μg/mL ampicillin, 100 μg/mL streptomycin).)
(§3) Reagents: MTS solution (2 mg/mL MTS (3-(4,5-dimethylthiazol-2-yl)-5-(3-carboxymethoxyphenyl)-2-(4-sulfophenyl)-2H-tetrazolium, inner salt); 100 μg/mL PES ([…])).
(§4) 3) Test of compound: Transformed Ba/F3 cells (EML4-ALK-BaF3, EML4-ALK(L1196M)-BaF3, NPM-ALK-BaF3) (2×10^4/well) were distributed into 96-well plates, with volume of cell sap of 90 μL, 10 μL of compounds in gradient concentration (the highest concentration 10 was μM, followed by 1/3 step by step dilution, a total of 8 concentrations were set, the system contained 0.1% DMSO (dimethyl sulfoxide)). The cell plates mixed with compounds were cultured in a cell incubator (37° C.; 5% CO2) for 48 hours, and the added 20 μL of MTS reaction solution, mixed and incubated in cell incubator (37° C.; 5% CO2) for 1-4 hours. The OD value at a wavelength of 490 nm was measured using eliasa (VARIOSKAN FLASH, Thermo). Three parallels were set up for each group, with a final concentration of 0.1% DMSO as negative control, and with medium without cells and compounds as blank control.
(§5) 4) Calculation of IC50 value: the semi inhibitory concentration of the compound acting on the cells was calculated using GradPad Prism 5 software according to the cell inhibitory rate measured.

[2] = target: T2, EML4-ALK (L1196M)-BaF3 (Homo sapiens, UniProt Q9UM73, L1196M); experiment: Growth inhibition of EML4-ALK (L1196M) transformed BaF3 cells (MTS); conditions: 48 hours
T2 construct: expressed in transfected cells; host or cells: Ba/F3 cells; the other entry of the earlier key: EML4 (Q9HC35, Echinoderm microtubule-associated protein-like 4)
Procedure: as §1, §2, §3, §4, §5

[3] = target: T3, NPM-ALK-BaF3 (Homo sapiens, UniProt Q9UM73); experiment: Growth inhibition of NPM-ALK transformed BaF3 cells (MTS); conditions: 48 hours
T3 construct: expressed in transfected cells; host or cells: Ba/F3 cells; the other entry of the earlier key: NPM1 (P06748, Nucleophosmin)
Procedure: (§6) The activity of compounds against ALK kinase was evaluated by inhibiting the growth of cellular ALK kinase EML4-ALK-BaF3, EML4-ALK (L1196M)-BaF3, NPM-ALK-BaF3, and wild type BaF3 (Proc. Natl. Acad. Sci. USA., 2006, 103, 3153-8.) The growth of cellular ALK kinase EML4-ALK-BaF3, EML4-ALK(L1196M)-BaF3, and NPM-ALK-BaF3 depends on their kinase activity. If compounds can inhibit the activity of ALK kinase or the activity of ALK signaling pathway, they can inhibit the growth of ALK transformed Ba/F3 cells. […] The broad-spectrum toxicity of compounds can be evaluated by determining the effect of the compounds on the growth of wild type BaF3 cells.
as §2, §3
as §4, with “control. The inhibition rate of cell growth was calculated by the following formula: Cell inhibition rate %=1−(OD experimental group−OD blank group)/(OD negative group−OD blank group)*100%” for “control.”
as §5

[4] = tested on: wild type BaF3; experiment: Growth inhibition of wild type BaF3 cells (broad-spectrum toxicity); conditions: Mus musculus, BaF3, 48 h, MTS
Procedure: as §6, §2, §3
as §4, with “control. The inhibition rate of cell growth was calculated by the following formula: Cell inhibition rate %=1−(OD experimental group−OD blank group)/(OD negative group−OD blank group)*100%” for “control.”
as §5

[5] = Table 11, read-out: EML4-ALK (L1196M) (IC50 nM)
[6] = Table 12, read-out: L1196M (IC50 nM)

SMILES | IC50 ([1]; Table 11) | IC50 [2, 5] | IC50 ([3]; Table 11) | IC50 ([4]; Table 11) | IC50 ([1]; Table 12) | IC50 [2, 6] | IC50 ([3]; Table 12) | IC50 ([4]; Table 12)
OC1CCN(c2ccc(Nc3nc(NC4CC4)c4[nH]ccc4n3)cc2)CC1 [IS-3] | 4480 nM | 9710 nM | > 10000 nM | 11800 nM |  |  |  | 
COC(=O)c1ccccc1Nc1nc(Nc2ccc(N3CCC(O)CC3)cc2OC(C)C)nc2cc[nH]c12 [IG-9] | > 10000 nM | > 10000 nM | > 10000 nM | > 10000 nM |  |  |  | 
COC(=O)c1ccccc1Oc1nc(Nc2ccc(S(N)(=O)=O)cc2)nc2cc[nH]c12 [IV-4] | > 10000 nM | > 10000 nM | > 10000 nM | > 10000 nM |  |  |  | 
COc1cc(N2CCN(C)CC2)ccc1Nc1nc(NCc2ccccc2S(=O)(=O)C(C)C)c2[nH]ccc2n1 [IO-1] | 1720 nM | 3400 nM | 4830 nM | 4080 nM |  |  |  | 
CC(C)Sc1ccccc1Nc1nc(Nc2ccc(S(N)(=O)=O)cc2)nc2ccn(C)c12 [IIB-4] |  |  |  |  | 3020 nM | 4210 nM | 4570 nM | 4880 nM
Cn1ccc2nc(Nc3ccc(N4CCC(O)CC4)cc3)nc(NCc3ccccc3S(C)(=O)=O)c21 [IIK-3] |  |  |  |  | > 10000 nM | > 10000 nM | > 10000 nM | > 10000 nM
COc1cc(N2CCC(N3CCN(C)CC3)CC2)ccc1Nc1nc(NCc2ccccc2S(C)(=O)=O)c2c(ccn2C)n1 [IIK-2] |  |  |  |  | ~3150 nM | ~2950 nM | ~3420 nM | ~2950 nM
COC(=O)c1ccccc1Sc1nc(Nc2ccc(S(N)(=O)=O)cc2)nc2cc[nH]c12 [IU-4] | 9110 nM | 5990 nM | > 10000 nM | > 10000 nM |  |  |  | 
CNC(=O)c1ccccc1Nc1nc(Nc2ccc(N3CCC(N4CCN(C)CC4)CC3)cc2OC)nc2cc[nH]c12 [IJ-1] | 4270 nM | 3940 nM | 4660 nM | 5010 nM |  |  |  | 
COC(=O)c1ccccc1Sc1nc(Nc2ccc(N3CCN(C)CC3)cc2OC)nc2cc[nH]c12 [IU-1] | > 10000 nM | > 10000 nM | > 10000 nM | > 10000 nM |  |  |  | 
COC(=O)c1cccc(Nc2nc(Nc3ccc(N4CCC(O)CC4)cc3)nc3cc[nH]c23)c1 [II-3] | 7470 nM | 6160 nM | 4910 nM | 9610 nM |  |  |  | 
COC(=O)c1ccccc1Nc1nc(Nc2ccc(C(=O)N3CCC(N4CCN(C)CC4)CC3)cc2OC)nc2ccn(C)c12 [IIG-4] |  |  |  |  | ~1330 nM | 3950 nM | 4210 nM | 4870 nM
COC(=O)c1ccccc1Nc1nc(Nc2ccc(C(=O)N3CCOCC3)cc2OC)nc2cc[nH]c12 [IG-17] | 7610 nM | ~9460 nM | 7670 nM | 9390 nM |  |  |  | 
CNC(=O)c1ccccc1Nc1nc(Nc2ccc(N3CCC(N4CCCC4)CC3)cc2OC)nc2cc[nH]c12 [IJ-2] | ~8710 nM | 4110 nM | ~8360 nM | ~11700 nM |  |  |  | 
COC(=O)c1sccc1Nc1nc(Nc2ccc(N3CCN(C)CC3)cc2OC)nc2cc[nH]c12 [IK-1] | ~2580 nM | 1550 nM | 1780 nM | 1820 nM |  |  |  | 
CSc1ccccc1CNc1nc(Nc2ccc(S(N)(=O)=O)cc2)nc2ccn(C)c12 [III-3] |  |  |  |  | 3200 nM | 4000 nM | 3710 nM | ~3340 nM
CSc1ccccc1Nc1nc(Nc2ccc(N3CCC(O)CC3)cc2)nc2ccn(C)c12 [IIA-3] |  |  |  |  | 321 nM | 161 nM | 456 nM | 376 nM
COC(=O)c1ccccc1Nc1nc(Nc2ccc(N3CCN(C)CC3)cc2OC)nc2cc[nH]c12 [IG-1] | 1470 nM | 1160 nM | 1800 nM | 2340 nM |  |  |  | 
